In one data set the test system is A2058 cells. The data set can be described thus: In vivo CR administration in A2058 xenograft with or without combined treatment. Set-up: species or system NOD/SCID mice. On the procedure: FIGS. 7A-H show amyloidogenesis suppresses tumor growth. (A) Sections of melanomas receiving combined treatment were stained with cleaved caspase 3 antibodies followed by CR staining Arrowheads and arrows indicate condensed and fragmented nuclei, respectively. Scale bar: 50 μm. (B) 1×10^6 A2058 cells were s.c. injected into NOD/SCID mice. After 7 days, mice were treated with 1 mg/30 g CR via i.p. injection one day prior to combined treatment. Tumor volumes were measured weekly (mean±SD, ANOVA). […] Lysis buffer containing CR served as a positive control. (D) Kaplan-Meier survival curves were compared (Log-rank test). (E and F) Both detergent-soluble and -insoluble fractions of tumor lysates were used to quantitate amyloids, 3 tumors per group (mean±SD, n=3, Student's t-test). (G) Proteins were detected by immunoblotting, 3 tumors per group. (H) Schematic depiction of the interplay among MEK, ERK, and HSF1, and its role in regulating proteome stability. Balanced proteostasis suppresses toxic protein aggregation and amyloidogenesis, thereby facilitating tumorigenesis. See also FIG. 14.
This figure is related to FIG. 7. (A) CR treatment stimulates in vivo melanoma growth and renders melanomas partially resistant to combined MEK and proteasome inhibition. Tumors were harvested at sacrifice and weighed (mean±SD, n=10, ANOVA). (B) CR treatment exacerbates body weight loss in tumor-bearing mice. Body weights were recorded before xenografting and at sacrifice. To derive net body weights of melanoma-bearing mice, tumor weights were subtracted from total body weights. Results are presented as body weight changes before and after xenografting (paired Student's t-test).
A2058 cells were s.c. injected into the left flanks of 9-week-old female NOD.CB17-Prkdc/J (NOD/SCID) mice (The Jackson Laboratory). For CR treatment, mice were i.p. injected with PBS or CR one day prior to combined AZD6244 and Bortezomib treatments. Tumor volumes were calculated following the formula 4/3πR^3. For experimental metastasis, engineered A2058 cells were transplanted into 10-week-old female NOD/SCID mice via tail vein injections. All mouse experiments were performed under a protocol approved by The Jackson Laboratory Animal Care and Use Committee.

The subject of a further data set is HSF1. The data set can be described thus: Dual HSF1 reporter assay (HSE-SEAP / CMV-GLuc) in HEK293T cells. As to conditions: 20 μM U0126, 20 nM AZD6244, 1 μM FR180204 or 100 nM Sch772984. It counts as cell-based. As for the experimental part: (A) NIH3T3 cells were treated with HS at 43° C. for 30 min, 10 μM tubastatin A for 5 hr, 40 μM VER155008 for 1 hr, 500 nM MG132 for 1 hr, 200 nM 17-DMAG for 1 hr, and 2.5 mM azetidine for 15 min (B) The dual ELK1 reporter system, comprising a serum response element (SRE)-driven secreted embryonic alkaline phosphatase (SEAP) plasmid and a CMV-driven Gaussia luciferase (GLuc) plasmid, was transfected into HEK293T cells. After 24 hr, cells were treatments as in (A) and recovered overnight before measuring reporter activities (mean±SD, n=6, ANOVA). (C and D) NIH3T3 cells were treated with 20 μM U0126 or 20 nM AZD6244 for 3 hr followed by HS and 4-hr recovery. mRNA levels were quantitated by qRT-PCR (mean±SD, n=3, Student's t-test). (E) Immediately after HS, nuclear proteins of NIH3T3 cells treated as in (C) were extracted to measure HSF1-DNA binding by an ELISA-based assay (mean±SD, n=3, ANOVA). (F) HEK293T cells were transfected with dual HSF1 reporter plasmids, a heat-shock element (HSE)-driven SEAP plasmid and a CMV-GLuc plasmid. […] (G) HEK293T cells were treated with different inhibitors overnight. […] After 24 hr, cells were heat shocked at 43° C. for 30 min followed by overnight recovery (mean±SD, n=3, ANOVA). […]
FIGS. 8A-H illustrate that MEK and ERK inversely regulate the PSR. […] Cell viability was measured by a Guava EasyCyte™ flow cytometer using Guava ViaCount™ reagents (mean±SD, n=5, Student's t test). […] Levels of ERK1 and ERK2 mRNAs were quantitated in HEK293T cells transfected with ERK1-targeting siRNAs by qRT-PCR (mean±SD, n=3, ANOVA). […] Levels of ERK2 and ERK1 mRNAs were quantitated in HEK293T cells transfected with ERK2-targeting siRNAs by qRT-PCR (mean±SD, n=3, ANOVA).
Plasmids were transfected with TurboFect transfection reagent (Thermo Scientific). SEAP and luciferase activities in culture supernatants were quantitated using a Ziva® Ultra SEAP Plus Detection Kit (Jaden BioScience) and a Gaussia Luciferase Glow Assay Kit (Thermo Scientific), respectively. Luminescence signals were measured by a VICTORS Multilabel plate reader (PerkinElmer).
(In general: Reporter assays use an easily measured gene product as a stand-in for the process of interest.)

A further data set has as its system HSF1 Ser326. The data set can be described thus: HSF1 Ser326 phosphorylation by immunoblotting in HEK293T cells. It counts as cell-based. As to conditions: overnight, 20 μM U0126, 20 nM AZD6244, 1 μM FR180204 or 100 nM Sch772984. As for the experimental part: This figure is related to FIG. 3. (A) Validation of phospho-HSF1 Ser326 antibodies. […] (B) MEK blockade impairs HSF1 Ser326 phosphorylation. […] (D-E) S326A mutation impairs HSF1 nuclear translocation. […] (F) Acute MEK depletion diminishes HSF1 proteins. […] HSF1 proteins were detected by immunoblotting. (G) ERK-mediated HSF1 Ser307 phosphorylation depends on MEK. […] Levels of phosphor-HSF1 Ser307 were measured by immunoblotting. (H) HSF1 Ser326 phosphorylation inhibits Ser307 phosphorylation.
(A western blot detects proteins with antibodies after separation by electrophoresis.)

The next data set relates to ERK. Put plainly: Immunoblotting of ERK and MSK1 phosphorylation in HEK293T cells. As to conditions: inhibitors overnight. In kind it is cell-based.
The subject of data set [1] is ERK complexes precipitated from HEK293T cells. The data set can be described thus: In vitro kinase assay with immunoprecipitated ERK complexes. It counts as biochemical. To be noted: 1000 ng MBP. As for the experimental part:
Co-expressed GFP proteins served as internal controls. […] See also FIG. 10.
Samples were boiled for 5 min to stop reactions.

On to `Nc1c(/N=N/c2ccc(-c3ccc(/N=N/c4cc(S(=O)(=O)O)c5ccccc5c4N)cc3)cc2)cc(S(=O)(=O)O)c2ccccc12` [CR, Congo red], for which, in the data set on A2058 cells (1 mg/30 g CR i.p.), the melanoma growth result is recorded as “accelerated”. Moreover, the “tumor suppression imposed by combined MEK and proteasome inhibition” value in the data set on A2058 cells (1 mg/30 g CR i.p. one day prior to combined treatment) is “potently antagonized”. Further, in the data set on A2058 cells (CR treatment), the “amyloids in tumor tissues” value was “reduced”, the animal survival entry was “shortened”, the body conditions entry is “deteriorated” and the tumor masses result is recorded as “enlarged”. For the same molecule, the ubiquitination in tumors entry with A2058 cells (CR treatment) was “did not diminish”. Besides, the “caspase 3 cleavage in tumors” value in the data set on A2058 cells (CR-treated tumors) is “reduced”. Besides, the “penetration of CR into tumor tissues” value with A2058 cells (absorbance of tumor lysates) is listed as “intense light absorption of tumor lysates at 498 nm”.
In the case of `O=C(Nc1ccc2[nH]nc(-c3ccncc3)c2c1)[C@@H]1CCN(CC(=O)N2CCN(c3ccc(-c4ncccn4)cc3)CC2)C1` [Sch772984], in the data set with HSF1, the “transcriptional activation of HSF1” value was “activated”. Besides, in the data set on HSF1 Ser326, the “HSF1 Ser326 phosphorylation” value was “enhances”. In addition, the ERK phosphorylation result in the data set with ERK is recorded as “suppressed”.
Take `Nc1[nH]nc2nnc(-c3c(-c4ccccc4)nn4ccccc34)cc12` [FR180204]: the “phosphorylation of myelin basic protein (MBP) by precipitated ERK complexes” value in data set [1] is “blocked”. Moreover, the “transcriptional activation of HSF1” value in the data set with HSF1 is “activated”. The “HSF1 Ser326 phosphorylation” value in the data set with HSF1 Ser326 is given as “enhances”. In addition, the ERK phosphorylation entry in the data set on ERK is “promoted”.

For the origin of these results see US20180369203A1, “METHODS OF TREATING CANCER BY ADMINISTERING A MEK INHIBITOR IN COMBINATION WITH A PROTEASOME INHIBITOR” (The Jackson Laboratory, priority 2015, published 2018).
